Measurements taken from patent US5300491A, “Treatment of protozoal infection” (priority 1992, dated 1994).
Values joined by “and” are separate entries in the source; they are usually repeats but may differ in a detail not shown here. Equal entries are not always repeated. Where two headings read alike, the source gives them in different places. Bridge positions count the residues as written; N and C are the ends. Square brackets hold non-standard residues; d marks the D form. Peptide text beside a SMILES is read from it. * marks the point of attachment. Ileψ(thiazoline)Cys = CC[C@H](C)[C@H](N)C1=N[C@H](C(=O)*)CS1; dOrn = NCCC[C@@H](N)C(=O)O

Tests used:
[1] = system: Tritrichomonas foetus; assay: Tritrichomonas foetus assay (MLC); assay type: cell-based
Method: Duplicate plates of each isolate were prepared. One set of plates was exposed to an aerobic environment; and, the second set was exposed to an anaerobic environment. An Oxoid HP 11 anaerobic gas chamber and BR 38 gas generating kit were used to produce the anaerobic environment. […]

[2] = system: Trichomonas vaginalis; assay: Trichomonas vaginalis assay of other divalent metal salts of bacitracin (MIC); assay type: cell-based
Method: (§1) All isolates were treated with either bacitracin or zinc bacitracin.
(§2) Prior to being diluted with the medium, the bacitracins were initially solubilized in water to 250 mg/ml. The zinc salt was solubilized in acidified water (60 μl HC1/ml). Duplicate plates of each isolate were prepared. one set of plates was exposed to an aerobic environment; and, the second set was exposed to an anaerobic environment. An Oxoid HP 11 anaerobic gas chamber and BR 38 gas generating kit were used to produce the anaerobic environment.
The procedure of Example IV was repeated, substituting bacitracin salts of the following metals for zinc bacitracin: nickel, cadmium, cobalt, manganese, copper and iron. The MLCs of the bacitracin salts were out of range. However, the MICs indicate that, with the exception of ferrous bacitracin, complexation with a divalent metal salt enhanced the activity of bacitracin.

[3] = system: Trichomonas vaginalis; assay: Trichomonas vaginalis assay (MLC, aerobic and anaerobic); assay type: cell-based; conditions: for MLCs: span over metronidazole-sensitive isolates, converted from IU/ml
Method: as §1, §2

[4] = system: Tritrichomonas gallinae; assay: Tritrichomonas gallinae assay (MLC); assay type: cell-based; conditions: isolate GH85
Method: A single T. gallinae isolate was collected and treated with bacitracin or zinc bacitracin in accordance with the procedure of Example IV. Duplicate plates of the isolate were prepared. one plate was exposed to an aerobic environment. The second plate was exposed to an anaerobic environment.

[5] = system: Giardia lamblia; assay type: cell-based
Method: A Portland isolate of G. lamblia was treated with bacitracin and zinc bacitracin according to the procedure of Example IV. An Oxoid HP 11 anaerobic gas chamber and BR 38 gas generating kit were used to produce an anaerobic environment. […] The parasites were incubated in the presence of the treating reagent for 2 4 hours. The viability of the parasites was based on morphology and motility.

[6] = system: Micrococcus uteus; conditions: as obtained from Apothekernes Laboratorium A.S; cited from earlier work
[7] = system: E. histolytica axenic cultures (NIH:200); assay: Axenic culture study of E. histolytica (NIH:200), cell number reduction; assay type: cell-based, Entamoeba histolytica
Method: Axenic cultures are isolates of amoeba which have been adapted for growth in the absence of bacteria, i.e. they comprise sterile cultures. E. histolytica axenic cultures (NIH:200) were maintained according to the method of Diamond, J. Parasitol. 54, 1047-56 (1968) in TP-S-1 medium modified by replacing the vitamin solution with 2.5% NCTC 135. […] Amoebae were harvested by cooling tubes at 4° C. for 20 minutes in an ice-bath prior to centrifugation at 1,000 rpm for 8 minutes at 4° C. Assays were performed over 36-48 hours, rather than the 24 hour period used for xenic cultures, due to the more extended division time of axenic cultures. All assays were performed in triplicate.

[8] = isolate 1031, metronidazole-sensitive, aerobic
[9] = isolate 1031, metronidazole-sensitive, anaerobic
[10] = isolate 1043, metronidazole-sensitive, aerobic
[11] = isolate 1043, metronidazole-sensitive, anaerobic
[12] = isolate 1044, metronidazole-sensitive, aerobic
[13] = isolate 1044, metronidazole-sensitive, anaerobic
[14] = isolate 1064, metronidazole-sensitive, aerobic
[15] = isolate 1064, metronidazole-sensitive, anaerobic
[16] = isolate 1065, metronidazole-sensitive, aerobic
[17] = isolate 1065, metronidazole-sensitive, anaerobic
[18] = isolate 1165, metronidazole-sensitive, aerobic
[19] = isolate 1165, metronidazole-sensitive, anaerobic
[20] = isolate 1910, metronidazole-sensitive, aerobic
[21] = isolate 1910, metronidazole-sensitive, anaerobic
[22] = isolate 6950, metronidazole-sensitive, aerobic
[23] = isolate 6950, metronidazole-sensitive, anaerobic
[24] = isolate 89532.2, metronidazole-insensitive, aerobic
[25] = isolate 89532.2, metronidazole-insensitive, anaerobic
[26] = isolate 90576, metronidazole-insensitive, aerobic
[27] = isolate 90576, metronidazole-insensitive, anaerobic
[28] = isolate CDC85, metronidazole-insensitive, aerobic
[29] = isolate CDC85, metronidazole-insensitive, anaerobic
[30] = isolate IR78, metronidazole-insensitive, aerobic
[31] = isolate IR78, metronidazole-insensitive, anaerobic
[32] = isolate PHLS289, metronidazole-insensitive, aerobic
[33] = isolate PHLS289, metronidazole-insensitive, anaerobic
[34] = isolate STH-1, metronidazole-insensitive, aerobic
[35] = isolate STH-1, metronidazole-insensitive, anaerobic
[36] = isolate UCH-1, metronidazole-sensitive, aerobic
[37] = isolate UCH-1, metronidazole-sensitive, anaerobic
[38] = isolate UCH-2, metronidazole-sensitive, aerobic
[39] = isolate UCH-2, metronidazole-sensitive, anaerobic
[40] = isolate UCH-M1, metronidazole-sensitive, aerobic
[41] = isolate UCH-M1, metronidazole-sensitive, anaerobic
[42] = isolate UOB-1, metronidazole-sensitive, aerobic
[43] = isolate UOB-1, metronidazole-sensitive, anaerobic
[44] = span depending upon culture conditions
[45] = span depending upon culture conditions, converted from IU/ml
[46] = Portland isolate, anaerobic, 24 hours, two lines of values

CC[C@H](C)[C@H](N)C1=N[C@H](C(=O)N[C@@H](CC(C)C)C(=O)N[C@H](CCC(=O)O)C(=O)N[C@H](C(=O)N[C@H]2CCCCNC(=O)[C@H](CC(N)=O)NC(=O)[C@@H](CC(=O)O)NC(=O)[C@H](Cc3cnc[nH]3)NC(=O)[C@@H](Cc3ccccc3)NC(=O)[C@H]([C@@H](C)CC)NC(=O)[C@@H](CCCN)NC2=O)[C@@H](C)CC)CS1 [Bacitracin, reference compound] ({Ileψ(thiazoline)Cys}-L[dE]IK[dOrn]I[dF]H[dD]N; lactam 4-C)
28000 µg/mL: MLC ([1]; isolate 121, aerobic) | MLC ([1]; isolate 121, anaerobic) | MLC ([1]; isolate 138, aerobic) | MLC ([1]; isolate 138, anaerobic) | MLC ([1]; isolate ATCC 30166, aerobic) | MLC ([1]; isolate ATCC 30166, anaerobic) | MLC ([1]; isolate FT.3741, aerobic) | MLC ([1]; isolate FT.3741, anaerobic) | MLC ([1]; isolate S10, aerobic) | MLC ([1]; isolate S10, anaerobic) | MLC ([1]; isolate TF.7, aerobic) | MLC ([1]; isolate TF.7, anaerobic)
70 I.U./mg: Potency of the material used [6]
21.44-35.71 mg/mi: MLCs [3]
1,500-2,000 IU/ml: MLC [4, 44]
2500 IU/ml: MLC [3, 10] | MLC [3, 26] | MLC [3, 33] | MLC [3, 38] | MLC [3, 39]
92.3%: Cell number reduction compared to controls ([7]; axenic culture, 5 mg/ml)
2500 IU/ml and 2000 IU/ml: MLC (first of the two columns per drug) [5, 46]
97.7%: Cell number reduction compared to controls ([7]; axenic culture, 10 mg/ml)
76.4%: Cell number reduction compared to controls ([7]; axenic culture, 2.5 mg/ml)
99.9%: Cell number reduction compared to controls ([7]; axenic culture, 15 mg/ml)
21.43 to 28.57 mg/mL: MLC [4, 45]
> 3500 IU/ml: MLC (second of the two columns per drug) [5, 46]
2000 IU/ml: MLC [3, 8] | MLC [3, 9] | MLC [3, 11] | MLC [3, 12] | MLC [3, 13] | MLC [3, 16] | MLC [3, 17] | MLC [3, 18] | MLC [3, 19] | MLC [3, 20] | MLC [3, 21] | MLC [3, 22] | MLC [3, 23] | MLC [3, 24] | MLC [3, 25] | MLC [3, 27] | MLC [3, 29] | MLC [3, 30] | MLC [3, 31] | MLC [3, 32] | MLC [3, 34] | MLC [3, 35] | MLC [3, 36] | MLC [3, 37] | MLC [3, 40] | MLC [3, 41] | MLC [3, 42] | MLC [3, 43] | MLC ([4]; aerobic)
28.6 to 35.7 mg/mL: MICs [5]
10000 µg/mL: MIC ([2]; T. vaginalis isolate 1910) | MIC ([2]; T. vaginalis isolate UCH1)
1500 IU/ml: MLC [3, 14] | MLC [3, 15] | MLC [3, 28] | MLC ([4]; anaerobic)
All amoeba were killed: killing of amoeba ([7]; axenic culture, 20 mg/ml, 48 hours)

Zinc bacitracin
5000 µg/mL: MLC ([1]; isolate FT.3741, anaerobic)
2500 µg/mL: MIC ([2]; T. vaginalis isolate UCH1)
> 400 IU/ml and 300 IU/ml: MLC (second of the two columns per drug) [5, 46]
300 IU/ml: MLC [3, 13] | MLC [3, 15] | MLC [3, 16] | MLC [3, 30] | MLC [3, 31] | MLC ([4]; anaerobic)
350 IU/ml: MLC [3, 9] | MLC [3, 10] | MLC [3, 11] | MLC [3, 18] | MLC [3, 21] | MLC [3, 22] | MLC [3, 24] | MLC [3, 25] | MLC [3, 27] | MLC [3, 28] | MLC [3, 29] | MLC [3, 35] | MLC [3, 38]
250 IU/ml: MLC [3, 8] | MLC [3, 12] | MLC [3, 14] | MLC [3, 19] | MLC [3, 26] | MLC [3, 33] | MLC [3, 34] | MLC [3, 40] | MLC [3, 41] | MLC ([4]; aerobic)
400 IU/ml: MLC [3, 17] | MLC [3, 20] | MLC [3, 23] | MLC [3, 36] | MLC [3, 37] | MLC [3, 39] | MLC [3, 42] | MLC [3, 43]
2.3 to 6.3 mg/mL: MICs ([5]; Portland isolate, converted from IU/ml)
68.3%: Cell number reduction compared to controls ([7]; axenic culture, 1 mg/ml)
> 99.5%: Cell number reduction compared to controls ([7]; axenic culture, 5 mg/ml)
65 I.U./mg: Potency of the material used [6]
90.6%: Cell number reduction compared to controls ([7]; axenic culture, 2 mg/ml)
250-300 IU/ml: MLC [4, 44]
2-3 times: concentration required for lethality in axenic as opposed to xenic amoeba cultures ([7]; axenic versus xenic)
6000 µg/mL: MLC ([1]; isolate 121, aerobic) | MLC ([1]; isolate 121, anaerobic) | MLC ([1]; isolate 138, aerobic) | MLC ([1]; isolate 138, anaerobic) | MLC ([1]; isolate ATCC 30166, aerobic) | MLC ([1]; isolate ATCC 30166, anaerobic) | MLC ([1]; isolate FT.3741, aerobic) | MLC ([1]; isolate S10, aerobic) | MLC ([1]; isolate S10, anaerobic) | MLC ([1]; isolate TF.7, aerobic) | MLC ([1]; isolate TF.7, anaerobic)
3.13 to 5.47 mg/mL: MLCs [3]
3.91 to 4.87 mg/mL: MLC [4, 45]
200 IU/ml: MLC [3, 32]
2500 to 5000 µg/mL: MIC ([2]; T. vaginalis isolate 1910)
